Test results from US20150105252A1, “SUBSTITUTED PYRAZOLES AS HERBICIDES” (E I DU PONT DE NEMOURS AND COMPANY, priority 2013, published 2015).

Legend:
corn = experiment: Test C postemergence; format: in vivo, Zea mays; settings: for Plant response rating (scale of 0 to 100 where 0 is no effect and 100 is complete control), Corn: Postemergence, 31 g ai/ha, visually evaluated after 13 to 15 days; for Corn plant response rating / Plant response rating, Corn: postemergence; for Corn plant response rating: 62 g ai/ha, scale 0 to 100
Summary of the method: (§1)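 Scores of 0 (no effect) to 100 (complete control) were assigned by eye after 13–15 days, comparing treated pots with controls. Soil-applied (preemergence) treatments went onto seeds in loam and sand; foliar (postemergence) treatments onto 1- to 4-leaf plants in peat medium.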

nutsedge, yellow = experiment: Test C preemergence; format: in vivo, Cyperus esculentus; settings: preemergence; for Plant response rating, Nutsedge, Yellow: 125 g ai/ha, scale 0 to 100, 0 = no effect, 100 = complete control
Summary of the method: as §1

ragweed = experiment: Test C preemergence; format: in vivo, Ambrosia elation; settings: preemergence; for Plant response rating, Ragweed: 125 g ai/ha, scale 0 to 100, 0 = no effect, 100 = complete control
Summary of the method: as §1

crabgrass, large = experiment: Test C preemergence; format: in vivo, Digitaria sanguinalis; settings: preemergence; for Plant response rating, Crabgrass, Large: 125 g ai/ha, scale 0 to 100, 0 = no effect, 100 = complete control
Summary of the method: as §1

ryegrass, Italian [1] = experiment: Test C preemergence; format: in vivo, Lolium multiflorum; settings: preemergence; for Plant response rating, Ryegrass, Italian: 125 g ai/ha, scale 0 to 100, 0 = no effect, 100 = complete control
Summary of the method: as §1

lambsquarters = experiment: Test C postemergence; format: in vivo, Chenopodium album; settings: for Plant response rating (scale of 0 to 100 where 0 is no effect and 100 is complete control), Lambsquarters: Postemergence, 31 g ai/ha, visually evaluated after 13 to 15 days; for Lambsquarters plant response rating / Plant response rating, Lambsquarters: postemergence; for Lambsquarters plant response rating: 62 g ai/ha, scale 0 to 100
Summary of the method: as §1

pigweed = experiment: Test A postemergence; format: in vivo, Amaranthus retroflexus
Summary of the method: (§2)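 Both timings tested concurrently in loam/sand soil: preemergence by directed soil spray, postemergence on plants of 2–10 cm at the one- to two-leaf stage. Greenhouse holding period was approximately 10 days before visual injury assessment (0–100, 0 = no effect).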

wheat = experiment: Test A preemergence; format: in vivo, Triticum aestivum; settings: preemergence; for Wheat plant response rating (0 to 100 scale): 125 g ai/ha, visual injury approx. 10 days after treatment; for Wheat plant response rating: 500 g ai/ha, visual injury after approx. 10 days, 0 to 100 scale (0 no effect, 100 complete control)
Summary of the method: as §2

foxtail, giant = experiment: Test C preemergence; format: in vivo, Setaria faberii; settings: preemergence; for Plant response rating, Foxtail, Giant: 125 g ai/ha, scale 0 to 100, 0 = no effect, 100 = complete control
Summary of the method: as §1

waterhemp [2] = experiment: Test C postemergence; format: in vivo, Amaranthus rudis; settings: for Plant response rating, Waterhemp / Waterhemp plant response rating: postemergence; for Plant response rating, Waterhemp: 250 g ai/ha, scale 0 to 100 (0 no effect, 100 complete control); for Waterhemp plant response rating: scale 0 to 100
Summary of the method: as §1

waterhemp [3] = experiment: Test C preemergence; format: in vivo, Amaranthus rudis; settings: preemergence; for Plant response rating, Waterhemp: 125 g ai/ha, scale 0 to 100, 0 = no effect, 100 = complete control
Summary of the method: as §1

ryegrass, Italian [4] = experiment: Test C postemergence; format: in vivo, Lolium multiflorum; settings: for Plant response rating, Ryegrass, Italian: postemergence
Summary of the method: as §1

ducksalad = experiment: Test B flood; format: in vivo, Heteranthera limosa; settings: 250 g ai/ha, visual rating on 0 to 100 scale (0 no effect, 100 complete control), 13 to 15 days
Summary of the method: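 Visual ratings (0 = no effect, 100 = complete control) versus untreated controls were taken 13–15 days after treatment of greenhouse plants. Treatment was added to paddy water held at 3 cm depth on 2-leaf-stage seedlings.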

[5] = 250 g ai/ha, scale 0 to 100 (0 no effect, 100 complete control)
[6] = 125 g ai/ha, scale 0 to 100, 0 no effect, 100 complete control
[7] = 31 g ai/ha, visual rating, scale 0 to 100 (0 no effect, 100 complete control), 13 to 15 days
[8] = 62 g ai/ha, scale 0 to 100 (0 no effect, 100 complete control), 13 to 15 days
[9] = 250 g ai/ha, scale 0 to 100, 0 is no effect, 100 is complete control
[10] = Postemergence, 500 g ai/ha, 0 to 100 scale (0 no effect, 100 complete control)
[11] = postemergence, 125 g ai/ha, about 10 days, visual rating on 0 to 100 scale (0 no effect, 100 complete control)
[12] = Postemergence, 31 g ai/ha, visually evaluated after 13 to 15 days

## O=C(NC1CC1)c1cc(CCCl)n(Cc2ccnc(C(F)(F)F)c2)n1 [Compound 144]
corn
  Plant response rating (scale of 0 to 100 where 0 is no effect and 100 is complete control), Corn: 5
  Corn plant response rating: 10
corn; [5]
  Plant response rating, Corn: 25
corn; [6]
  Plant response rating, Corn: 15
nutsedge, yellow; [7]
  Nutsedge, Yellow plant response rating: 0
nutsedge, yellow; [8]
  Nutsedge, Yellow plant response rating: 45
nutsedge, yellow; 13 to 15 days
  Plant response rating, Nutsedge, Yellow: 65
nutsedge, yellow; [9]
  Nutsedge, Yellow plant response rating: 90
ragweed; [7]
  Ragweed plant response rating: 85
ragweed; [8]
  Ragweed plant response rating: 90
ragweed; 13 to 15 days
  Plant response rating, Ragweed: 95
ragweed; [9]
  Ragweed plant response rating: 98
crabgrass, large; [7]
  Crabgrass, Large plant response rating: 100
crabgrass, large; [8]
  Crabgrass, Large plant response rating: 100
crabgrass, large; 13 to 15 days
  Plant response rating, Crabgrass, Large: 100
crabgrass, large; [9]
  Crabgrass, Large plant response rating: 100
ryegrass, Italian [1]; [7]
  Ryegrass, Italian plant response rating: 5
ryegrass, Italian [1]; [8]
  Ryegrass, Italian plant response rating: 30
ryegrass, Italian [1]; 13 to 15 days
  Plant response rating, Ryegrass, Italian: 85
ryegrass, Italian [1]; [9]
  Ryegrass, Italian plant response rating: 90
lambsquarters
  Plant response rating (scale of 0 to 100 where 0 is no effect and 100 is complete control), Lambsquarters: 60
  Lambsquarters plant response rating: 60
lambsquarters; [5]
  Plant response rating, Lambsquarters: 95
lambsquarters; [6]
  Plant response rating, Lambsquarters: 70
pigweed; [10]
  Pigweed plant response rating: 100
pigweed; [11]
  Pigweed plant response rating: 100
wheat
  Wheat plant response rating (0 to 100 scale): 50
  Wheat plant response rating: 100
foxtail, giant; [7]
  Foxtail, Giant plant response rating: 75
foxtail, giant; [8]
  Foxtail, Giant plant response rating: 100
foxtail, giant; 13 to 15 days
  Plant response rating, Foxtail, Giant: 100
foxtail, giant; [9]
  Foxtail, Giant plant response rating: 100
Waterhemp [2]; [12]
  Plant response rating (scale of 0 to 100 where 0 is no effect and 100 is complete control), Waterhemp: 65
Waterhemp [2]
  Plant response rating, Waterhemp: 75
  Waterhemp plant response rating: 75
Waterhemp [3]; [7]
  Waterhemp plant response rating: 98
Waterhemp [3]; [8]
  Waterhemp plant response rating: 98
Waterhemp [3]; 13 to 15 days
  Plant response rating, Waterhemp: 100
Waterhemp [3]; [9]
  Waterhemp plant response rating: 100
ryegrass, Italian [4]; [12]
  Plant response rating (scale of 0 to 100 where 0 is no effect and 100 is complete control), Ryegrass, Italian: 5
ryegrass, Italian [4]; [5]
  Plant response rating, Ryegrass, Italian: 5
ryegrass, Italian [4]; [6]
  Plant response rating, Ryegrass, Italian: 5
ducksalad
  Plant response rating, Ducksalad: 95

## CCOc1cc(C(=O)NOC(C)C)nn1Cc1ccnc(C(F)(F)F)c1 [Compound 153]
corn
  Plant response rating (scale of 0 to 100 where 0 is no effect and 100 is complete control), Corn: 5
  Corn plant response rating: 10
corn; [5]
  Plant response rating, Corn: 20
corn; [6]
  Plant response rating, Corn: 30
nutsedge, yellow; [7]
  Nutsedge, Yellow plant response rating: 20
nutsedge, yellow; [8]
  Nutsedge, Yellow plant response rating: 75
nutsedge, yellow; 13 to 15 days
  Plant response rating, Nutsedge, Yellow: 85
nutsedge, yellow; [9]
  Nutsedge, Yellow plant response rating: 95
ragweed; [7]
  Ragweed plant response rating: 50
ragweed; [8]
  Ragweed plant response rating: 95
ragweed; 13 to 15 days
  Plant response rating, Ragweed: 98
ragweed; [9]
  Ragweed plant response rating: 98
crabgrass, large; [7]
  Crabgrass, Large plant response rating: 85
crabgrass, large; [8]
  Crabgrass, Large plant response rating: 98
crabgrass, large; 13 to 15 days
  Plant response rating, Crabgrass, Large: 100
crabgrass, large; [9]
  Crabgrass, Large plant response rating: 100
ryegrass, Italian [1]; [7]
  Ryegrass, Italian plant response rating: 5
ryegrass, Italian [1]; [8]
  Ryegrass, Italian plant response rating: 50
ryegrass, Italian [1]; 13 to 15 days
  Plant response rating, Ryegrass, Italian: 90
ryegrass, Italian [1]; [9]
  Ryegrass, Italian plant response rating: 90
lambsquarters
  Plant response rating (scale of 0 to 100 where 0 is no effect and 100 is complete control), Lambsquarters: 65
  Lambsquarters plant response rating: 55
lambsquarters; [5]
  Plant response rating, Lambsquarters: 85
lambsquarters; [6]
  Plant response rating, Lambsquarters: 75
pigweed; [10]
  Pigweed plant response rating: 100
pigweed; [11]
  Pigweed plant response rating: 100
wheat
  Wheat plant response rating (0 to 100 scale): 100
  Wheat plant response rating: 100
foxtail, giant; [7]
  Foxtail, Giant plant response rating: 60
foxtail, giant; [8]
  Foxtail, Giant plant response rating: 85
foxtail, giant; 13 to 15 days
  Plant response rating, Foxtail, Giant: 100
foxtail, giant; [9]
  Foxtail, Giant plant response rating: 100
Waterhemp [2]
  Plant response rating, Waterhemp: 65
  Waterhemp plant response rating: 40
Waterhemp [3]; [7]
  Waterhemp plant response rating: 60
Waterhemp [3]; [8]
  Waterhemp plant response rating: 100
Waterhemp [3]; 13 to 15 days
  Plant response rating, Waterhemp: 100
Waterhemp [3]; [9]
  Waterhemp plant response rating: 100
ryegrass, Italian [4]; [5]
  Plant response rating, Ryegrass, Italian: 5
ryegrass, Italian [4]; [6]
  Plant response rating, Ryegrass, Italian: 5
ducksalad
  Plant response rating, Ducksalad: 90
